pIC50: −log10 of the molar value.
Legend:
Human PKMYT1 = target: T1, Human PKMYT1 (Homo sapiens, UniProt Q99640); assay: PKMYT1 biochemical ADP-Glo enzymatic assay; details: ADP-Glo; 15 nM PKMYT1 kinase domain, 500 µM ATP, 60 minutes at 26° C.; banded
T1 construct: Human PKMYT1 75-362 was cloned as a TEV cleavable 6xHis fusion; 6xHis (TEV cleavable) (cleaved yes); made in house; host or cells: bacterial cells
T1 sequence (Q99640 75-362): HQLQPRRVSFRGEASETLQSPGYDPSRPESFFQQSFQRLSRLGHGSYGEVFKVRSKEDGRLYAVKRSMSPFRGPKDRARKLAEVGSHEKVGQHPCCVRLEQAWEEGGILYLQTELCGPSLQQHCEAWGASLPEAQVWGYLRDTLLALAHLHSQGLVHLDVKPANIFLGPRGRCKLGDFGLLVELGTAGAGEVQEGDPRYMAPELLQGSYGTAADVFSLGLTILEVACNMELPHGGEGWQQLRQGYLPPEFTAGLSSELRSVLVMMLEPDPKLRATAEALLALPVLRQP
Summary of the method: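 IC50 values come from 10-point 3-fold series, with replicates required within 3-fold and r2 >0.9. ADP formed by PKMYT1 intrinsic ATPase (500 uM ATP, 60 min, 26° C.) was quantified by ADP-Glo luminescence. The enzyme was the TEV-cleaved kinase domain 75-362 at 15 nM, in HEPES pH 7.5 buffer.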

OVCAR3 cells = assay: Cancer cell line proliferation assay, nuclear count, OVCAR3 (CCNE1-amplified); type: cell-based; details: banded
Experimental: h-TERT-RPE1 TP53−/− and CCNE1 high expressing clones (clone cell lines 7 and 15) were treated with test compounds dissolved in DMSO at serially diluted concentrations alongside a DMSO only control for around 6 population doublings time. Cells were then fixed with 4% Paraformaldehyde and the cell nuclei were stained with DAPI (Sigma D9542). Images covering each well were acquired by an Opera Phenix® High-Content Screening System (PerkinElmer). Image analysis was performed using Harmony® high-content analysis software (PerkinElmer). Data analysis was performed using Microsoft Excel® and GI50 estimates generated with GraphPad Prism v9. Percent nuclear count was compared to vehicle control wells and used to measure inhibition of proliferation.
Cancer cell lines with either normal (KYSE-30) or amplified CCNE1 expression (OVCAR3-ovarian cancer) were evaluated for their sensitivity to PKMYT1 inhibitors in a nuclear count assay as described above for h-TERT-RPE1 TP53−/− and a CCNE1 high expressing clones, taking into account the slower cell cycle division times of these lines.

pIC50 (Human PKMYT1): > 7.30 | GI50 (OVCAR3 cells; Homo sapiens, OVCAR-3, CCNE1-amplified ovarian cancer, nuclear count): < 500 nM
Compound: CCN(CC)C(=O)Cn1cc(C)c(Nc2ncc(C(=O)Nc3c(C)ccc(O)c3C)s2)n1 [BAA-207, 2-[[1-[2-(diethylamino)-2-oxo-ethyl]-4-methyl-pyrazol-3-yl]amino]-N-(3-hydroxy-2,6-dimethyl-phenyl)thiazole-5-carboxamide]
Selectivity ratio KYSE30 GI50 vs. OVCAR3 GI50 (OVCAR3 cells; GI50 ratio KYSE30 vs. OVCAR3, >N = at least in this band): Z (>30 fold)

From patent US20260297042A1, “BIARYLAMIDE DERIVATIVES AND THEIR USE AS PKMYT1 INHIBITORS” (CANCER RESEARCH TECHNOLOGY LIMITED, priority 2023, published 2026)
